According to ChEMBL document CHEMBL1201862, “PubChem BioAssay data set” (2004):
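Compound exposure: 48 hours, 5 concentrations, 96-well plates. GI50 is the concentration that inhibits growth by half.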 Active and inactive are the calls of the source. Cut-off read from the data, not from the text of the source: active = GI50 up to about 1.1 µM and inactive = higher.

What was measured:
Test in all cases: NCI tumour cell line growth inhibition, 48 h
[1] = system: NCI-H226
[2] = system: OVCAR-8
[3] = system: SF-295
[4] = system: A549
[5] = system: EKVX
[6] = system: SF-539
[7] = system: KM-20L2
[8] = system: SW-620
[9] = system: HOP-92
[10] = system: HT-29
[11] = system: HCC 2998
[12] = system: NCI-H460
[13] = system: SR
[14] = system: UACC-257
[15] = system: SK-MEL-5
[16] = system: MDA-MB-231
[17] = system: COLO 205
[18] = system: Hs-578T
[19] = system: NCI-H522
[20] = system: NCI/ADR-RES

| SMILES | GI50 [1] | GI50 [2] | GI50 [3] | GI50 [4] | GI50 [5] | GI50 [6] | GI50 [7] | GI50 [8] | GI50 [9] | GI50 [10] | GI50 [11] | GI50 [12] | GI50 [13] | GI50 [14] | GI50 [15] | GI50 [16] | GI50 [17] | GI50 [18] | GI50 [19] | GI50 [20] |
| --- | --- | --- | --- | --- | --- | --- | --- | --- | --- | --- | --- | --- | --- | --- | --- | --- | --- | --- | --- | --- |
| S=c1nc(N2CCCCC2)ss1 | 43.9 µM (inactive) | 28.5 µM (inactive) | 29 µM (inactive) | 28.4 µM (inactive) | 24.2 µM (inactive) | 18.9 µM (inactive) | > 100 µM (inactive) | 24.8 µM (inactive) | 17.5 µM (inactive) | 28.8 µM (inactive) | 16.2 µM (inactive) | 22.3 µM (inactive) | 14.2 µM (inactive) | 19.8 µM (inactive) | 16.6 µM (inactive) | – | – | – | – | – |
| C[C@]12CC[C@H](OC3OC(CO)C(O)C(O)C3O)C[C@H]1CC[C@@H]1[C@@H]2CC[C@]2(C)[C@@H](C3=CCOC3=O)CC[C@]12O (stereo partly drawn) [ACTODIGIN] | – | – | 1.45 µM (inactive) | 15.7 µM (inactive) | 16.5 µM (inactive) | 0.447 µM (active) | 3.55 µM (inactive) | 18.6 µM (inactive) | 2.24 µM (inactive) | 41.1 µM (inactive) | 26.8 µM (inactive) | – | 2.96 µM (inactive) | – | 7.52 µM (inactive) | > 100 µM (inactive) | 16.9 µM (inactive) | 40.9 µM (inactive) | 16.8 µM (inactive) | 24.4 µM (inactive) |
| CCCCCCCC(=O)OCC1OC(n2cc(F)c(=O)[nH]c2=O)C(N)C(O)C1O (stereo not drawn) | > 100 µM (inactive) | > 100 µM (inactive) | > 100 µM (inactive) | > 100 µM (inactive) | > 100 µM (inactive) | > 100 µM (inactive) | > 100 µM (inactive) | > 100 µM (inactive) | > 100 µM (inactive) | > 100 µM (inactive) | > 100 µM (inactive) | > 100 µM (inactive) | > 100 µM (inactive) | > 100 µM (inactive) | > 100 µM (inactive) | – | > 100 µM (inactive) | – | > 100 µM (inactive) | – |
| CC(=O)NC1C(OCc2ccccc2)OC(COC(=O)CCCCCCCCCCNc2ccc([N+](=O)[O-])c3[nH]c4ccccc4c(=O)c23)C(O)C1OC(C)C(=O)NC(C)C(=O)NC(CCC(N)=O)C(=O)OCc1ccccc1 (stereo not drawn) | > 100 µM (inactive) | > 100 µM (inactive) | > 100 µM (inactive) | > 100 µM (inactive) | > 100 µM (inactive) | > 100 µM (inactive) | > 100 µM (inactive) | > 100 µM (inactive) | – | > 100 µM (inactive) | > 100 µM (inactive) | > 100 µM (inactive) | > 100 µM (inactive) | > 100 µM (inactive) | > 100 µM (inactive) | – | > 100 µM (inactive) | – | > 100 µM (inactive) | – |
| CCN(CC)CCCNc1ncc(C)c2c1c1ccc3c(O)cccc3c1n2C | 3.44 µM (inactive) | 1.43 µM (inactive) | 1.73 µM (inactive) | 0.389 µM (active) | 3.02 µM (inactive) | 2.11 µM (inactive) | 3.07 µM (inactive) | 0.883 µM (active) | 9.16 µM (inactive) | 1.21 µM (inactive) | 0.798 µM (active) | 1.02 µM (active) | 0.282 µM (active) | 16.3 µM (inactive) | 6.76 µM (inactive) | 1.57 µM (inactive) | 5.52 µM (inactive) | 1.68 µM (inactive) | 1.05 µM (active) | 2.81 µM (inactive) |
| O=C1CCCC[C@H]1[C@H]1CCC[C@@H]([C@H]2CCCCC2=O)C1=O | > 100 µM (inactive) | – | > 100 µM (inactive) | > 100 µM (inactive) | > 100 µM (inactive) | > 100 µM (inactive) | > 100 µM (inactive) | > 100 µM (inactive) | > 100 µM (inactive) | > 100 µM (inactive) | > 100 µM (inactive) | > 100 µM (inactive) | > 100 µM (inactive) | > 100 µM (inactive) | > 100 µM (inactive) | – | > 100 µM (inactive) | – | > 100 µM (inactive) | – |
| COc1cc(C(=C2SCCS2)c2nccc3cc(OC)c(OC)cc23)c([N+](=O)[O-])cc1OC | 80.4 µM (inactive) | > 100 µM (inactive) | 56 µM (inactive) | 39.4 µM (inactive) | 54 µM (inactive) | > 100 µM (inactive) | 51.1 µM (inactive) | 62.1 µM (inactive) | 8.71 µM (inactive) | 58.9 µM (inactive) | > 100 µM (inactive) | – | 21.7 µM (inactive) | 34 µM (inactive) | 23.7 µM (inactive) | – | 35.3 µM (inactive) | – | 36.6 µM (inactive) | – |
| N#CC(C#N)=Cc1ccc(Oc2ccccc2)cc1 | > 43.9 µM (inactive) | 25.5 µM (inactive) | 22.2 µM (inactive) | > 100 µM (inactive) | > 100 µM (inactive) | 19.9 µM (inactive) | > 91.4 µM (inactive) | 32.4 µM (inactive) | – | 22.4 µM (inactive) | 97.5 µM (inactive) | 53.2 µM (inactive) | 41.3 µM (inactive) | 25.6 µM (inactive) | 24.5 µM (inactive) | – | 45.5 µM (inactive) | – | 23.7 µM (inactive) | – |
| Cc1ccc(S(=O)(=O)CNC(=S)CCCC(=S)NCS(=O)(=O)c2ccc(C)cc2)cc1 | > 100 µM (inactive) | > 100 µM (inactive) | > 100 µM (inactive) | > 100 µM (inactive) | > 100 µM (inactive) | > 100 µM (inactive) | > 100 µM (inactive) | 53.5 µM (inactive) | 20.2 µM (inactive) | > 100 µM (inactive) | > 100 µM (inactive) | > 100 µM (inactive) | 32.7 µM (inactive) | > 100 µM (inactive) | 79.1 µM (inactive) | – | > 100 µM (inactive) | – | 41.4 µM (inactive) | – |
| COc1cccc2c1C(=O)c1c(O)c3c(c(O)c1C2=O)CC(O)(C(C)=O)CC3OC1CC([N+](C)(C)C)C(O)C(C)O1 (stereo not drawn) | 80.7 µM (inactive) | 54.3 µM (inactive) | > 100 µM (inactive) | > 100 µM (inactive) | > 100 µM (inactive) | 47.2 µM (inactive) | > 100 µM (inactive) | 56.1 µM (inactive) | > 100 µM (inactive) | 94.2 µM (inactive) | > 100 µM (inactive) | 36.4 µM (inactive) | 5.24 µM (inactive) | > 100 µM (inactive) | > 100 µM (inactive) | – | 48.1 µM (inactive) | – | 31.3 µM (inactive) | – |
| CCCN(CCCCC(NC(C)=O)C(=O)NCc1ccccc1)C(=O)N(C)N=O (stereo not drawn) | > 100 µM (inactive) | > 100 µM (inactive) | > 100 µM (inactive) | > 100 µM (inactive) | > 100 µM (inactive) | > 100 µM (inactive) | > 100 µM (inactive) | > 100 µM (inactive) | > 100 µM (inactive) | > 100 µM (inactive) | > 100 µM (inactive) | > 100 µM (inactive) | – | > 100 µM (inactive) | > 100 µM (inactive) | – | > 100 µM (inactive) | – | > 100 µM (inactive) | – |
| C/C(=N\NC(N)=S)C(CN(CC(C)C)CC(C)C)C(=O)Nc1ccc(C)cc1C (stereo not drawn) | > 100 µM (inactive) | > 100 µM (inactive) | > 100 µM (inactive) | > 100 µM (inactive) | 54.6 µM (inactive) | > 100 µM (inactive) | > 100 µM (inactive) | > 100 µM (inactive) | > 100 µM (inactive) | > 100 µM (inactive) | > 100 µM (inactive) | > 100 µM (inactive) | > 100 µM (inactive) | > 100 µM (inactive) | > 100 µM (inactive) | – | > 100 µM (inactive) | – | > 100 µM (inactive) | – |
| CN(C)CC1(C)CC/C(=C\c2ccccc2)C1=O (stereo not drawn) | > 100 µM (inactive) | > 100 µM (inactive) | > 100 µM (inactive) | > 100 µM (inactive) | – | > 100 µM (inactive) | > 100 µM (inactive) | 63.1 µM (inactive) | > 100 µM (inactive) | > 100 µM (inactive) | > 100 µM (inactive) | > 100 µM (inactive) | – | > 100 µM (inactive) | > 100 µM (inactive) | – | > 100 µM (inactive) | – | 39.8 µM (inactive) | – |
| Nc1nc(CCc2n[nH]c(N)n2)n[nH]1 | > 100 µM (inactive) | > 100 µM (inactive) | > 100 µM (inactive) | > 100 µM (inactive) | > 100 µM (inactive) | > 100 µM (inactive) | > 100 µM (inactive) | > 100 µM (inactive) | > 100 µM (inactive) | > 100 µM (inactive) | > 100 µM (inactive) | > 100 µM (inactive) | – | > 100 µM (inactive) | > 100 µM (inactive) | – | > 100 µM (inactive) | – | > 100 µM (inactive) | – |
| C/C(=N\NC(=O)CC(=O)Nc1ccc(Cl)cc1)c1cc2ccccc2oc1=O | > 100 µM (inactive) | > 100 µM (inactive) | > 100 µM (inactive) | > 100 µM (inactive) | > 100 µM (inactive) | > 100 µM (inactive) | > 100 µM (inactive) | > 100 µM (inactive) | – | > 100 µM (inactive) | – | > 100 µM (inactive) | – | > 100 µM (inactive) | > 100 µM (inactive) | – | > 100 µM (inactive) | – | > 100 µM (inactive) | – |
| COS(=O)CCOC(=O)c1ccccc1SSc1ccccc1C(=O)OCCS(=O)OC (stereo not drawn) | – | 22.3 µM (inactive) | 33.2 µM (inactive) | > 100 µM (inactive) | > 100 µM (inactive) | 25.3 µM (inactive) | 61 µM (inactive) | 31 µM (inactive) | 25.1 µM (inactive) | 14.1 µM (inactive) | – | > 100 µM (inactive) | – | 15.6 µM (inactive) | 67 µM (inactive) | – | 23.4 µM (inactive) | – | 4.78 µM (inactive) | – |
